In patent US11000033B2, “Ketone or oxime compound, and herbicide” (NISSAN CHEMICAL CORPORATION, priority 2014, dated 2021):

Experiments:
Format in all cases: in vivo
rice plant = test: Test Example 5: effect on crop by foliage application, plastic box (symbol b); conditions: 320 g/ha, 3 weeks after application
Procedure, shortened: (§1)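 Greenhouse test at 25° C. to 30° C. Seeds of crops and weeds were spot-sown in boxes of sterilized diluvial soil under roughly 1.5 cm soil cover, then grown for foliage treatment.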

Apera spica-venti = test: Test Example 4: herbicidal effect by soil treatment (symbol L); conditions: application herbicide amount 320 g/ha
Procedure, shortened: (§2)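 Seeds were sown in sterilized diluvial soil, covered with about 1.5 cm of soil, and the soil surface was sprayed with a water-diluted emulsion of the compound at a predetermined rate. Plants grew in a greenhouse at 25° C. to 30° C.; effects were scored visually 3 weeks after application.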

[1] = system: directly sowed rice plant; test: Test Example 3: effect on crop by foliage application, Wagner pot (symbol b); conditions: application herbicide amount 320 g/ha
Procedure, shortened: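 Steps: fill a 1/10000-are Wagner pot with alluvial soil; add water and mix to submerge at 0.1–0.5 cm depth; sow rice plus Echinochloa crus-galli var. crus-galli, Leptochloa chinensis and Cyperus difformis; grow in a 25–30 °C greenhouse.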

rapeseed [2] = test: Test Example 5: effect on crop by foliage application, plastic box (symbol g); conditions: 320 g/ha, 3 weeks after application
Procedure, shortened: as §1

rice = test: Test Example 4: effect on crop by soil treatment (symbol b); conditions: application herbicide amount 320 g/ha
Procedure, shortened: (§3)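 Diluvial soil (sterilized) in boxes; seeds placed spot-wise alongside weed species; ~1.5 cm covering soil. Greenhouse, 25–30° C.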

Amaranthus retroflexus = test: Test Example 4: herbicidal effect by soil treatment (symbol N); conditions: application herbicide amount 320 g/ha
Procedure, shortened: as §2

[3] = system: Echinochloa oryzacola Vasing.; test: Test Example 2: herbicidal activity, application during weed generation in submerged conditions (symbol A); conditions: Table 23; application herbicide amount 320 g/ha; grade 0-5 by criteria of Test Example 1
Procedure, shortened: (§4)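 Scoring of herbicidal effect took place 3 weeks after treatment, using the criteria of the earlier test. Treatment was water-surface application of diluted emulsifiable compound at a set dose. Plants were at one- to two-leaf stage in submerged alluvial soil (4 cm depth), greenhouse 25-30° C.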

Lolium multiflorum Lam. = test: Test Example 4: herbicidal effect by soil treatment (symbol K); conditions: application herbicide amount 320 g/ha
Procedure, shortened: as §2

wheat [4] = test: Test Example 5: effect on crop by foliage application, plastic box (symbol e); conditions: 320 g/ha, 3 weeks after application
Procedure, shortened: as §1

soybean = test: Test Example 4: effect on crop by soil treatment (symbol d); conditions: application herbicide amount 320 g/ha
Procedure, shortened: as §3

Abutilon theophrasti = test: Test Example 5: herbicidal effect by foliage application, plastic box (symbol M); conditions: 320 g/ha, 3 weeks after application
Procedure, shortened: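 Emulsion formulation, diluted with water to the intended rate, was applied uniformly to leaves by small sprayer. Recipients were 14-day greenhouse-grown seedlings (25° C. to 30° C.). Assessment followed at 3 weeks.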

Avena fatua = test: Test Example 4: herbicidal effect by soil treatment (symbol I); conditions: application herbicide amount 320 g/ha
Procedure, shortened: as §2

Scirpus juncoides = test: Test Example 2: herbicidal activity, application during weed generation in submerged conditions (symbol B); conditions: Table 23; application herbicide amount 320 g/ha; grade 0-5 by criteria of Test Example 1
Procedure, shortened: as §4

rapeseed [5] = test: Test Example 4: effect on crop by soil treatment (symbol g); conditions: application herbicide amount 320 g/ha
Procedure, shortened: as §3

wheat [6] = test: Test Example 4: effect on crop by soil treatment (symbol e); conditions: application herbicide amount 320 g/ha
Procedure, shortened: as §3

beet = test: Test Example 5: effect on crop by foliage application, plastic box (symbol f); conditions: 320 g/ha, 3 weeks after application
Procedure, shortened: as §1

CC(=O)CC1CC(O)=C(c2c(C)cc(-c3ccc(C)cc3)cc2C)C1=O (centres unmarked) [7-007]
b: directly sowed rice plant, effect on crop (criteria of Test Example 1) (rice plant): 5 (Herbicidal ratio of 90% or more (almost completely withered))
Herbicidal effect grade, L: Apera spica-venti (Apera spica-venti): 5 (Herbicidal ratio of 90% or more (almost completely withered))
effect on crop b (directly sowed rice plant), grade 0-5 [1]: 5 (Herbicidal ratio of 90% or more (almost completely withered))
g: rapeseed, effect on crop (criteria of Test Example 1) (rapeseed [2]): 0 (Herbicidal ratio of 5% or lower (almost no effect))
Effect on crop grade, b: directly sowed rice plant (rice): 4 (Herbicidal ratio of 70% or higher and lower than 90%)
Herbicidal effect grade, N: Amaranthus retroflexus (Amaranthus retroflexus): 0 (Herbicidal ratio of 5% or lower (almost no effect))
Herbicidal effect grade, A: Echinochloa oryzacola Vasing. [3]: 5 (Herbicidal ratio of 90% or more (almost completely withered))
Herbicidal effect grade, K: Lolium multiflorum Lam. (Lolium multiflorum Lam.): 5 (Herbicidal ratio of 90% or more (almost completely withered))
e: wheat, effect on crop (criteria of Test Example 1) (wheat [4]): 2 (Herbicidal ratio of 20% or higher and lower than 40%)
Effect on crop grade, d: soybean (soybean): 0 (Herbicidal ratio of 5% or lower (almost no effect))
M: Abutilon theophrasti, herbicidal effect (criteria of Test Example 1) (Abutilon theophrasti): 0 (Herbicidal ratio of 5% or lower (almost no effect))
Herbicidal effect grade, I: Avena fatua (Avena fatua): 0 (Herbicidal ratio of 5% or lower (almost no effect))
Herbicidal effect grade, B: Scirpus juncoides (Scirpus juncoides): 0 (Herbicidal ratio of 5% or lower (almost no effect))
Effect on crop grade, g: rapeseed (rapeseed [5]): 0 (Herbicidal ratio of 5% or lower (almost no effect))
Effect on crop grade, e: wheat (wheat [6]): 0 (Herbicidal ratio of 5% or lower (almost no effect))
f: beet, effect on crop (criteria of Test Example 1) (beet): 0 (Herbicidal ratio of 5% or lower (almost no effect))

CC(=O)CC1CC(O)=C(c2c(C)cc(-c3ccc(Cl)cc3)cc2C)C1=O (centres unmarked) [7-008]
b: directly sowed rice plant, effect on crop (criteria of Test Example 1) (rice plant): 5 (Herbicidal ratio of 90% or more (almost completely withered))
Herbicidal effect grade, L: Apera spica-venti (Apera spica-venti): 5 (Herbicidal ratio of 90% or more (almost completely withered))
effect on crop b (directly sowed rice plant), grade 0-5 [1]: 5 (Herbicidal ratio of 90% or more (almost completely withered))
g: rapeseed, effect on crop (criteria of Test Example 1) (rapeseed [2]): 3 (Herbicidal ratio of 40% or higher and lower than 70%)
Effect on crop grade, b: directly sowed rice plant (rice): 5 (Herbicidal ratio of 90% or more (almost completely withered))
Herbicidal effect grade, N: Amaranthus retroflexus (Amaranthus retroflexus): 0 (Herbicidal ratio of 5% or lower (almost no effect))
Herbicidal effect grade, A: Echinochloa oryzacola Vasing. [3]: 4 (Herbicidal ratio of 70% or higher and lower than 90%)
Herbicidal effect grade, K: Lolium multiflorum Lam. (Lolium multiflorum Lam.): 5 (Herbicidal ratio of 90% or more (almost completely withered))
e: wheat, effect on crop (criteria of Test Example 1) (wheat [4]): 4 (Herbicidal ratio of 70% or higher and lower than 90%)
Effect on crop grade, d: soybean (soybean): 0 (Herbicidal ratio of 5% or lower (almost no effect))
M: Abutilon theophrasti, herbicidal effect (criteria of Test Example 1) (Abutilon theophrasti): 1 (Herbicidal ratio of 5% or higher and lower than 20%)
Herbicidal effect grade, I: Avena fatua (Avena fatua): 3 (Herbicidal ratio of 40% or higher and lower than 70%)
Herbicidal effect grade, B: Scirpus juncoides (Scirpus juncoides): 0 (Herbicidal ratio of 5% or lower (almost no effect))
Effect on crop grade, g: rapeseed (rapeseed [5]): 0 (Herbicidal ratio of 5% or lower (almost no effect))
Effect on crop grade, e: wheat (wheat [6]): 1 (Herbicidal ratio of 5% or higher and lower than 20%)
f: beet, effect on crop (criteria of Test Example 1) (beet): 0 (Herbicidal ratio of 5% or lower (almost no effect))

CC#Cc1cc(C)c(C2=C(O)CC(CC(C)=O)C2=O)c(C)c1 (centres unmarked) [7-010]
b: directly sowed rice plant, effect on crop (criteria of Test Example 1) (rice plant): 5 (Herbicidal ratio of 90% or more (almost completely withered))
Herbicidal effect grade, L: Apera spica-venti (Apera spica-venti): 5 (Herbicidal ratio of 90% or more (almost completely withered))
effect on crop b (directly sowed rice plant), grade 0-5 [1]: 5 (Herbicidal ratio of 90% or more (almost completely withered))
g: rapeseed, effect on crop (criteria of Test Example 1) (rapeseed [2]): 4 (Herbicidal ratio of 70% or higher and lower than 90%)
Effect on crop grade, b: directly sowed rice plant (rice): 5 (Herbicidal ratio of 90% or more (almost completely withered))
Herbicidal effect grade, N: Amaranthus retroflexus (Amaranthus retroflexus): 0 (Herbicidal ratio of 5% or lower (almost no effect))
Herbicidal effect grade, A: Echinochloa oryzacola Vasing. [3]: 5 (Herbicidal ratio of 90% or more (almost completely withered))
Herbicidal effect grade, K: Lolium multiflorum Lam. (Lolium multiflorum Lam.): 5 (Herbicidal ratio of 90% or more (almost completely withered))
e: wheat, effect on crop (criteria of Test Example 1) (wheat [4]): 5 (Herbicidal ratio of 90% or more (almost completely withered))
Effect on crop grade, d: soybean (soybean): 2 (Herbicidal ratio of 20% or higher and lower than 40%)
M: Abutilon theophrasti, herbicidal effect (criteria of Test Example 1) (Abutilon theophrasti): 3 (Herbicidal ratio of 40% or higher and lower than 70%)
Herbicidal effect grade, I: Avena fatua (Avena fatua): 2 (Herbicidal ratio of 20% or higher and lower than 40%)
Herbicidal effect grade, B: Scirpus juncoides (Scirpus juncoides): 5 (Herbicidal ratio of 90% or more (almost completely withered))
Effect on crop grade, g: rapeseed (rapeseed [5]): 3 (Herbicidal ratio of 40% or higher and lower than 70%)
Effect on crop grade, e: wheat (wheat [6]): 4 (Herbicidal ratio of 70% or higher and lower than 90%)
f: beet, effect on crop (criteria of Test Example 1) (beet): 0 (Herbicidal ratio of 5% or lower (almost no effect))

CC(=O)CC1CC(O)=C(c2c(C)cc(C)cc2Br)C1=O (centres unmarked) [7-011]
b: directly sowed rice plant, effect on crop (criteria of Test Example 1) (rice plant): 5 (Herbicidal ratio of 90% or more (almost completely withered))
Herbicidal effect grade, L: Apera spica-venti (Apera spica-venti): 3 (Herbicidal ratio of 40% or higher and lower than 70%)
effect on crop b (directly sowed rice plant), grade 0-5 [1]: 5 (Herbicidal ratio of 90% or more (almost completely withered))
g: rapeseed, effect on crop (criteria of Test Example 1) (rapeseed [2]): 4 (Herbicidal ratio of 70% or higher and lower than 90%)
Effect on crop grade, b: directly sowed rice plant (rice): 5 (Herbicidal ratio of 90% or more (almost completely withered))
Herbicidal effect grade, N: Amaranthus retroflexus (Amaranthus retroflexus): 0 (Herbicidal ratio of 5% or lower (almost no effect))
Herbicidal effect grade, A: Echinochloa oryzacola Vasing. [3]: 3 (Herbicidal ratio of 40% or higher and lower than 70%)
Herbicidal effect grade, K: Lolium multiflorum Lam. (Lolium multiflorum Lam.): 4 (Herbicidal ratio of 70% or higher and lower than 90%)
e: wheat, effect on crop (criteria of Test Example 1) (wheat [4]): 0 (Herbicidal ratio of 5% or lower (almost no effect))
Effect on crop grade, d: soybean (soybean): 0 (Herbicidal ratio of 5% or lower (almost no effect))
M: Abutilon theophrasti, herbicidal effect (criteria of Test Example 1) (Abutilon theophrasti): 4 (Herbicidal ratio of 70% or higher and lower than 90%)
Herbicidal effect grade, I: Avena fatua (Avena fatua): 0 (Herbicidal ratio of 5% or lower (almost no effect))
Herbicidal effect grade, B: Scirpus juncoides (Scirpus juncoides): 2 (Herbicidal ratio of 20% or higher and lower than 40%)
Effect on crop grade, g: rapeseed (rapeseed [5]): 4 (Herbicidal ratio of 70% or higher and lower than 90%)
Effect on crop grade, e: wheat (wheat [6]): 0 (Herbicidal ratio of 5% or lower (almost no effect))
f: beet, effect on crop (criteria of Test Example 1) (beet): 0 (Herbicidal ratio of 5% or lower (almost no effect))

CC(=O)CC1CC(O)=C(c2c(C)cc(-c3ccccn3)cc2C)C1=O (centres unmarked) [7-012]
b: directly sowed rice plant, effect on crop (criteria of Test Example 1) (rice plant): 5 (Herbicidal ratio of 90% or more (almost completely withered))
Herbicidal effect grade, L: Apera spica-venti (Apera spica-venti): 0 (Herbicidal ratio of 5% or lower (almost no effect))
effect on crop b (directly sowed rice plant), grade 0-5 [1]: 5 (Herbicidal ratio of 90% or more (almost completely withered))
g: rapeseed, effect on crop (criteria of Test Example 1) (rapeseed [2]): 3 (Herbicidal ratio of 40% or higher and lower than 70%)
Effect on crop grade, b: directly sowed rice plant (rice): 5 (Herbicidal ratio of 90% or more (almost completely withered))
Herbicidal effect grade, N: Amaranthus retroflexus (Amaranthus retroflexus): 0 (Herbicidal ratio of 5% or lower (almost no effect))
Herbicidal effect grade, A: Echinochloa oryzacola Vasing. [3]: 3 (Herbicidal ratio of 40% or higher and lower than 70%)
Herbicidal effect grade, K: Lolium multiflorum Lam. (Lolium multiflorum Lam.): 2 (Herbicidal ratio of 20% or higher and lower than 40%)
e: wheat, effect on crop (criteria of Test Example 1) (wheat [4]): 1 (Herbicidal ratio of 5% or higher and lower than 20%)
Effect on crop grade, d: soybean (soybean): 0 (Herbicidal ratio of 5% or lower (almost no effect))
M: Abutilon theophrasti, herbicidal effect (criteria of Test Example 1) (Abutilon theophrasti): 0 (Herbicidal ratio of 5% or lower (almost no effect))
Herbicidal effect grade, I: Avena fatua (Avena fatua): 0 (Herbicidal ratio of 5% or lower (almost no effect))
Herbicidal effect grade, B: Scirpus juncoides (Scirpus juncoides): 0 (Herbicidal ratio of 5% or lower (almost no effect))
Effect on crop grade, g: rapeseed (rapeseed [5]): 0 (Herbicidal ratio of 5% or lower (almost no effect))
Effect on crop grade, e: wheat (wheat [6]): 0 (Herbicidal ratio of 5% or lower (almost no effect))
f: beet, effect on crop (criteria of Test Example 1) (beet): 0 (Herbicidal ratio of 5% or lower (almost no effect))
